Experimental data from patent US11266609B2, “Bacitracin and/or daptomycin combined with cannabidiol for treatment of bacterial infections” (priority 2017, dated 2022).
≈ marks a conversion by molar mass, not a printed value. Positions of bridges follow the written chain, without caps; N, C: chain ends. Non-standard residues stand in square brackets, D forms with d. Residues, ends and D or L forms follow the SMILES beside them. *: point of attachment. Ileψ(thiazoline)Cys = CC[C@H](C)[C@H](N)C1=N[C@H](C(=O)*)CS1; dOrn = NCCC[C@@H](N)C(=O)O

How the values were obtained:
MRSA USA300 FPR3757 = assay: microbe, parasite or virus in culture; type: cell-based, Staphylococcus aureus; settings: for FIC Index: combination of cannabidiol with the respective antibiotic, synergy <= 0.5, no interaction 0.5-4.0, antagonism > 4
Method: (§1) The resistant bacterium MRSA USA300 FPR3757 (USA300) was the main used bacterium throughout this study. MRSA was grown in Brain Heart Infusion (BHI) or Müeller Hinton (MH) media on plate or in liquid cultures with agitation at 37° C.
(§2) An ON culture was made by inoculating a bacterial colony in either 5 mL of MH or BHI and incubating at 37° C. with agitation. The antibiotic of interest was added to a row of a sterile 96-well plate (VWR) and a serial dilution was made down the rows containing 50 μL of MH or BHI media in each well, resulting in 2-fold dilution for each row. The ON culture was diluted to OD625 at approximately 1.0 followed by a 1:100 dilution to approximately OD625=0.01 of which 50 μL was added to each well to a final volume of 100 μL. The 96-well plate was incubated at 37° C. with shaking at 225 rpm for approximately 18-24 hours. Presence and absence of growth were determined by visual appearance.
B) The other screen was based on fractional inhibitory concentration (FIC) index.

MRSA USA300 = assay: Micro dilution growth experiments using oCelloScope, CBD combined with antibiotics (FIG. 1); type: cell-based, Staphylococcus aureus; settings: for synergistic potential in growth curves: combination with CBD 1-2 μg/mL, bacitracin 16, daptomycin 4, tetracycline 16, fosfomycin 16, dicloxacillin 0.0625, chlorhexidine 0.25, vancomycin 0.5 μg/mL (FIG. 1)
Method: BCA: Background corrected absorption. ? Growth control, ? CBD, -▴- Antibiotic, ? Combination.
as §1
An ON culture was made by inoculating a bacterial colony in either 5 mL of MH or BHI at incubated at 37° C. with agitation. 25 μL of specific concentrations of the antibiotic and cannabinoid to be tested was added to the desired wells of a sterile 96-well plate (Thermo Scientific). 25 μL of MH or BHI media was added to the wells only containing one of the two compounds tested. The bacterial ON culture was diluted to a final OD600 nm of 0.005 and 50 μL was dispensed into each well to a final volume of 100 μL. To decrease evaporation, 2 mL of pre-heated water was added to the corners of the 96-well plate containing cavities. The plate was placed in the oCelloScope inside an incubator at 37° C. Illumination level and focus was adjusted for each well and the growth was measured for approximately 25 hours. Measurements were performed every half an hour for the first half of the time and every hour for the last half using the UniExplorer software. Data retrieved was given in Background corrected absorption (BCA), formerly known as pixel histogram summation (PHS), an algorithm enabling determination of bacterial growth kinetics resulting from images taken with the oCelloScope camera.
A) A screen was performed using the Philips oCelloScope enabling measurements of bacterial growth in presence or absence of either cannabidiol alone or in combination with an antibiotic or antimicrobial, through a 3D scanning system in 96-well plates.

E. faecalis (13-327129) = assay: microbe, parasite or virus in culture; type: cell-based, Enterococcus faecalis
Method: (§3) Additional bacteria Enterococcus faecalis (13-327129), Enterococcus faecalis (16-7418), Methicillin-resistant Staphylococcus epidermidis (933010 3F-16 b4), Listeria monocytogenes EGD, Pseudomonas aeruginosa (PA01), Salmonella typhimurium (14028), Klepsiella pneumoniae (CAS55), Vibrio cholerae (A1522), and Escherichia coli (UTI89) were either grown in BHI or Lysogeny broth (LB) media.
as §2, with “appearance. FIC index was calculated as follows (Alam M T et al. Antibacterial activity of different organic extracts of Achyranthes aspera and Cassia alata. J Sci Res. 2009).” for “appearance.”
(§4) To study the bacterial spectrum of the combination, CBD and bacitracin growth measurements of other Gram-positive bacteria tests on Enterococcus faecalis, an MRSE strain and a strain of Listeria monocytogenes were performed as described in Example 1.
(§5) The MIC for bacitracin and CBD and the respective FIC values are visualized in table 2 for the Gram-positive bacteria and are calculated based on two biological replicates.

E. faecalis (16-7418) = assay: microbe, parasite or virus in culture; type: cell-based, Enterococcus faecalis; settings: 16-7418
Method: as §3
as §2, with “appearance. FIC index was calculated as follows (Alam M T et al. Antibacterial activity of different organic extracts of Achyranthes aspera and Cassia alata. J Sci Res. 2009).” for “appearance.”
as §4, §5

MRSE (933010 3F-16 b4) = assay: microbe, parasite or virus in culture; type: cell-based, Methicillin-resistant Staphylococcus epidermidis; settings: MRSE (933010 3F-16 b4)
Method: as §3
as §2, with “appearance. FIC index was calculated as follows (Alam M T et al. Antibacterial activity of different organic extracts of Achyranthes aspera and Cassia alata. J Sci Res. 2009).” for “appearance.”
as §4, §5

L. monocytogenes EGD = assay: microbe, parasite or virus in culture; type: cell-based, Listeria monocytogenes
Method: as §3
as §2, with “appearance. FIC index was calculated as follows (Alam M T et al. Antibacterial activity of different organic extracts of Achyranthes aspera and Cassia alata. J Sci Res. 2009).” for “appearance.”
as §4, §5

Vibrio cholerae (A1522) = assay: microbe, parasite or virus in culture; type: cell-based; settings: Vibrio cholerae (A1522); above tested concentrations
Method: as §3
as §2, with “The 96-well plate was incubated at 37° C. with shaking at 225 rpm for approximately 18-24 hours.” left out, “appearance. FIC index was calculated as follows (Alam M T et al. Antibacterial activity of different organic extracts of Achyranthes aspera and Cassia alata. J Sci Res. 2009).” for “appearance.”
To further assess the spectrum of use for the combination of CBD and bacitracin, growth of Gram-negative bacteria upon treatment was measured as well as described in Example 1. […]

[1] = target: T1, bacterial undecaprenyl pyrophosphate (UPP) synthase (Staphylococcus aureus, UniProt P60477); settings: The Journal of Antibiotics 69, 798-805 (2016); cited from earlier work
T1 sequence (P60477 1-256): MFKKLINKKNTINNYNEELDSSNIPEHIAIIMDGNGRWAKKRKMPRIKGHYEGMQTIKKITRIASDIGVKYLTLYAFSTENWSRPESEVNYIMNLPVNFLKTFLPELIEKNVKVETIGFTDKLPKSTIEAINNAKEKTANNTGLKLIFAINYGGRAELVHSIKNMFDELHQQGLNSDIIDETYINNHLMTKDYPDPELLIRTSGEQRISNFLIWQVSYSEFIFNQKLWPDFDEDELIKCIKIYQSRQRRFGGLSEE

[2] = test system: Gram-positive bacteria including methicillin-resistant Staphylococcus aureus (MRSA); settings: particularly against Gram-positive bacteria including MRSA; cited from earlier work

Molecule: CC[C@H](C)[C@H](N)C1=N[C@H](C(=O)N[C@@H](CC(C)C)C(=O)N[C@H](CCC(=O)O)C(=O)N[C@H](C(=O)N[C@H]2CCCCNC(=O)[C@H](CC(N)=O)NC(=O)[C@@H](CC(=O)O)NC(=O)[C@H](Cc3cnc[nH]3)NC(=O)[C@@H](Cc3ccccc3)NC(=O)[C@H]([C@@H](C)CC)NC(=O)[C@@H](CCCN)NC2=O)[C@@H](C)CC)CS1 [Bacitracin] ({Ileψ(thiazoline)Cys}-L[dE]IK[dOrn]I[dF]H[dD]N; lactam 4-C)
- MIC (MRSA USA300 FPR3757; MRSA USA300 FPR3757, Table 2, two biological replicates): 64 µg/mL (≈ 45 µM)
- Fold decreased bacitracin (MRSA USA300 FPR3757; MRSA USA300 FPR3757, bacitracin MIC combined with CBD compared to bacitracin alone): 16-32 fold
- MIC (MRSA USA300 FPR3757; WT USA300): 64 µg/mL (≈ 45 µM)
- FIC Index (MRSA USA300 FPR3757; WT USA300): 0.30
- synergistic potential in growth curves (MRSA USA300): synergistic potential
- MIC (E. faecalis (13-327129); 13-327129): 128 µg/mL
- Fold decreased bacitracin (E. faecalis (13-327129); E. faecalis (13-327129), bacitracin MIC combined with CBD compared to bacitracin alone): 16 fold
- MIC (E. faecalis (16-7418)): 128 µg/mL
- MIC (MRSE (933010 3F-16 b4)): 32 µg/mL
- Fold decreased bacitracin (MRSE (933010 3F-16 b4); bacitracin MIC combined with CBD compared to bacitracin alone): 64 fold
- MIC (L. monocytogenes EGD; EGD): 512 µg/mL
- Fold decreased bacitracin (L. monocytogenes EGD; L. monocytogenes EGD, bacitracin MIC combined with CBD compared to bacitracin alone): 8-16 fold
- MIC (Vibrio cholerae (A1522)): >1024 µg/mL

Molecule: CCCCCc1cc(O)c2c(c1)OC(C)(CCC=C(C)C)C=C2 (centres unmarked) [Cannabichromene (CBC), Cannabichromene]
- FIC index (with bacitracin) (MRSA USA300 FPR3757; USA300): 0.63
- FIC index (with daptomycin) (MRSA USA300 FPR3757; USA300): 0.63
- MIC (MRSA USA300 FPR3757; USA300, Table 4, unit not given): 4

Molecule: C[C@@H]1O[C@@H]1P(=O)(O)O [Fosfomycin]
- MIC (MRSA USA300 FPR3757; Staphylococcus aureus): 32 µg/mL (≈ 232 µM)
- synergistic/antagonistic potential in growth curves, lower concentration (MRSA USA300; combination with CBD 1 μg/mL, fosfomycin 8 μg/mL (FIG. 1E)): antagonistic potential
- synergistic potential in growth curves (MRSA USA300): to some degree

Molecule: [H]/N=C(\N/C(=N/[H])NCCCCCCNC(=N)NC(=N)Nc1ccc(Cl)cc1)Nc1ccc(Cl)cc1 [Chlorhexidine]
- MIC (MRSA USA300 FPR3757; Staphylococcus aureus): 1 to 2 µg/mL (≈ 1.98 to 3.96 µM)
- FIC Index (MRSA USA300 FPR3757; WT USA300): 1
- synergistic potential in growth curves (MRSA USA300): no synergistic potential

Molecule: Viridicatumtoxin
- IC50 [1]: 4 µM
- antimicrobial activity [2]: showed antimicrobial activity

Molecule: CO/N=C(\C(=O)N[C@@H]1C(=O)N2C(C(=O)O)=C(CSc3nc(=O)c(=O)[nH]n3C)CS[C@H]12)c1csc(N)n1 [Ceftriaxone]
- MIC (MRSA USA300 FPR3757; Staphylococcus aureus): 32 µg/mL (≈ 57.7 µM)
- FIC Index (MRSA USA300 FPR3757; WT USA300): 1.5
